The results in this text go back to ChEMBL document CHEMBL1150257, “Synthesis and cytotoxicity of a salicylihalamide A analogue” (2008).

Molecules are shown by their SMILES.

Common to all, as to assay type: functional
One assay deals with MCF7. In words: Cytotoxicity against human MCF7 cells.
For the next assay, the system named is MDA-MB-435. In words: Cytotoxicity against human MDA-MB-435 cells.
For the next assay, the system named is SR. Briefly: Cytotoxicity against human SR cells.
The test system of a further assay is SK-MEL-5. Briefly: Cytotoxicity against human SK-MEL-5 cells.

A word on the GI50: it is the concentration giving 50% growth inhibition. Lower therefore signals more potent growth inhibition. As for `CC/C=C\C=C/C(=O)N/C=C/CC1Cc2cccc(O)c2C(=O)O1` (racemic), the GI50 with MCF7 came out at 49 µM; with MDA-MB-435, 11 µM; in the assay on SR, 2 µM; in the assay with SK-MEL-5 it was 27 µM.
In the case of `CC/C=C\C=C/C(=O)N/C=C/C[C@H]1C[C@@H](O)[C@@H](C)C/C=C/Cc2cccc(O)c2C(=O)O1` [SALICYLIHALAMIDE A], halving of growth with SK-MEL-5 (GI50) required 0.007 µM.
